# Patent US20200390100A1, “SUBSTITUTED N-HETEROCYCLYL- AND N-HETEROARYL-TETRAHYDROPYRIMIDINONES AND THE SALTS THEREOF, AND THE USE OF SAME AS HERBICIDAL ACTIVE SUBSTANCES” (Bayer Aktiengesellschaft, priority 2017, published 2020)
# How the values were obtained:
# Format in all cases: in vivo
# Amaranthus retroflexus [1] = assay: Pre-emergence herbicidal action, greenhouse, 320 g/ha; details: application rate 320 g/ha, scored visually after about 3 weeks vs untreated controls
# Source text: (§1) Seeds of monocotyledonous and dicotyledonous weed plants and crop plants were placed in plastic or organic planting pots and covered with soil. The compounds of the invention, formulated in the form of wettable powders (WP) or as emulsion concentrates (EC), were then applied to the surface of the covering soil as aqueous suspension or emulsion with addition of 0.5% additive at a water application rate equivalent to […]. After the treatment, the pots were placed in a greenhouse and kept under good growth conditions for the test plants. After about 3 weeks, the effect of the preparations is scored visually in comparison with untreated controls as percentages. For example, 100% activity=the plants have died, 0% activity=like control plants. Tables B1 to B14 below show the effects of selected compounds of the general formula (I) according to Tables I.1 to I.150 on various harmful plants and at an application rate corresponding to 320 g/ha, which were obtained by the experimental procedure mentioned above.
# Digitaria sanguinalis = assay: as above; details: application rate 320 g/ha, Table B9
# Source text: as §1
# Polygonum convolvulus = assay: as above; details: application rate 320 g/ha, scored visually after about 3 weeks vs untreated controls
# Source text: as §1
# Setaria viridis = assay: as above; details: application rate 320 g/ha, Table B11
# Source text: as §1
# Viola tricolor = assay: as above; details: application rate 320 g/ha, Table B8
# Source text: as §1
# Abutilon theophrasti [2] = assay: as above; details: application rate 320 g/ha, scored visually after about 3 weeks vs untreated controls
# Source text: as §1
# Alopecurus myosuroides = assay: as above; details: application rate 320 g/ha, scored visually after about 3 weeks vs untreated controls
# Source text: as §1
# Hordeum murinum = assay: as above; details: application rate 320 g/ha, Table B14
# Source text: as §1
# Matricaria inodora [3] = assay: as above; details: application rate 320 g/ha, scored visually after about 3 weeks vs untreated controls
# Source text: as §1
# Stellaria media [4] = assay: as above; details: application rate 320 g/ha, scored visually after about 3 weeks vs untreated controls
# Source text: as §1
# Pharbitis purpurea = assay: as above; details: application rate 320 g/ha, Table B12
# Source text: as §1
# Avena fatua = assay: as above; details: application rate 320 g/ha, scored visually after about 3 weeks vs untreated controls
# Source text: as §1
# Amaranthus retroflexus [5] = assay: Herbicidal post-emergence action (Part 2), 1280 g/ha; details: application rate 1280 g/ha, rated visually after about 3 weeks, Table C5
# Procedure: (§2) Seeds of mono- and dicotyledonous weed plants were placed in plastic pots in sandy loam soil (doubly sown with in each case one species of mono- or dicotyledonous weed plants per pot), covered with soil and cultivated in a greenhouse under controlled growth conditions. 2 to 3 weeks after sowing, the test plants were treated at the one-leaf stage. The compounds of the invention, formulated in the form of wettable powders (WP) or as emulsion concentrates (EC), were applied onto the green parts of the plants as aqueous suspension or emulsion with addition of 0.5% additive at a water application rate of 600 liters per hectare (converted). After the test plants had been kept in the greenhouse under optimum growth conditions for about 3 weeks, the activity of the preparations was rated visually in comparison to untreated controls. For example, 100% activity=the plants have died, 0% activity=like control plants. Tables C1 to C7 below show the effects of selected compounds of the general formula (I) according to Tables 1.1 to 1.150 on various harmful plants and at an application rate corresponding to 1280 g/ha, which were obtained by the experimental procedure mentioned above.
# Stellaria media [6] = assay: as above; details: application rate 1280 g/ha, rated visually after about 3 weeks, Table C7
# Procedure: as §2
# Amaranthus retroflexus [7] = assay: Herbicidal pre-emergence action (Part 2), 1280 g/ha; details: application rate 1280 g/ha, scored visually after about 3 weeks, Table D6
# Source text: (§3) Seeds of mono- and dicotyledonous weed plants were placed in plastic pots in sandy loam soil (doubly sown with in each case one species of mono- or dicotyledonous weed plants per pot) and covered with soil. The compounds of the invention, formulated in the form of wettable powders (WP) or as emulsion concentrates (EC), were then applied onto the surface of the covering soil as aqueous suspension or emulsion with addition of 0.5% additive at a water application rate of 600 liters per hectare (converted). After the treatment, the pots were placed in a greenhouse and kept under good growth conditions for the test plants. After about 3 weeks, the effect of the preparations was scored visually in comparison with untreated controls as percentages. For example, 100% activity=the plants have died, 0% activity=like control plants. Tables D1 to D8 below show the effects of selected compounds of the general formula (I) according to Tables 1.1 to 1.150 on various harmful plants and at an application rate corresponding to 1280 g/ha, which were obtained by the experimental procedure mentioned above.
# Matricaria inodora [8] = assay: as above; details: application rate 1280 g/ha, scored visually after about 3 weeks, Table D7
# Source text: as §3
# Stellaria media [9] = assay: as above; details: application rate 1280 g/ha, scored visually after about 3 weeks, Table D8
# Source text: as §3
# Matricaria inodora [10] = assay: Herbicidal post-emergence action (Part 2), 1280 g/ha; details: application rate 1280 g/ha, rated visually after about 3 weeks, Table C6
# Procedure: as §2
# Abutilon theophrasti [11] = assay: Herbicidal pre-emergence action (Part 2), 1280 g/ha; details: application rate 1280 g/ha, scored visually after about 3 weeks, Table D5
# Source text: as §3
# Poa annua = assay: as above; details: application rate 1280 g/ha, scored visually after about 3 weeks, Table D3
# Source text: as §3
# Echinochloa crus-galli = assay: as above; details: application rate 1280 g/ha, scored visually after about 3 weeks, Table D1
# Source text: as §3
Structure (SMILES),Amaranthus retroflexus (efficacy in %) (Amaranthus retroflexus [1]),Polygonum convolvulus (efficacy in %) (Polygonum convolvulus),Viola tricolor (efficacy in %) (Viola tricolor),Stellaria media (efficacy in %) (Stellaria media [4]),Amaranthus retroflexus (Amaranthus retroflexus [5]),Stellaria media (Stellaria media [6]),Amaranthus retroflexus (Amaranthus retroflexus [7]),Matricaria inodora (Matricaria inodora [8]),Stellaria media (Stellaria media [9]),Poa Annua (Poa annua),also measured
Cc1c(N2C(=O)N(C)CCC2O)noc1C(C)(C)C (stereo not shown) [I.1-177],90%,100%,90%,–,–,–,–,–,–,–,Digitaria sanguinalis (efficacy in %) (Digitaria sanguinalis): 100%; Setaria viridis (efficacy in %) (Setaria viridis): 90%
C=CCC(C)(C)c1cc(N2C(=O)N(C)CCC2O)no1 (stereo not shown) [I.1-199],100%,90%,100%,100%,–,–,–,–,–,–,Abutilon theophrasti (efficacy in %) (Abutilon theophrasti [2]): 100%; Alopecurus myosuroides (efficacy in %) (Alopecurus myosuroides): 90%; Hordeum murinum (efficacy in %) (Hordeum murinum): 80%; Matricaria inodora (efficacy in %) (Matricaria inodora [3]): 100%
COCC(C)(C)c1cc(N2C(=O)N(C)CCC2O)no1 (stereo not shown) [I.1-200],–,–,80%,80%,–,–,–,–,–,–,Matricaria inodora (efficacy in %) (Matricaria inodora [3]): 90%; Pharbitis purpurea (efficacy in %) (Pharbitis purpurea): 100%
CN1CCC(O)N(c2noc(C(C)(C)C)c2F)C1=O (stereo not shown) [I.1-206],90%,90%,100%,100%,–,–,–,–,–,–,Abutilon theophrasti (efficacy in %) (Abutilon theophrasti [2]): 90%; Alopecurus myosuroides (efficacy in %) (Alopecurus myosuroides): 80%; Avena fatua (efficacy in %) (Avena fatua): 80%; Digitaria sanguinalis (efficacy in %) (Digitaria sanguinalis): 100%; Hordeum murinum (efficacy in %) (Hordeum murinum): 80%; Matricaria inodora (efficacy in %) (Matricaria inodora [3]): 100%; Pharbitis purpurea (efficacy in %) (Pharbitis purpurea): 80%; Setaria viridis (efficacy in %) (Setaria viridis): 90%
CN1CCC(O)N(c2noc(C(C)(C)C)c2Br)C1=O (stereo not shown) [I.1-207],90%,100%,100%,100%,–,–,–,–,–,–,Avena fatua (efficacy in %) (Avena fatua): 90%; Digitaria sanguinalis (efficacy in %) (Digitaria sanguinalis): 100%; Pharbitis purpurea (efficacy in %) (Pharbitis purpurea): 100%; Setaria viridis (efficacy in %) (Setaria viridis): 100%
CN1CCC(O)N(c2cc(C(C)(C)F)ncn2)C1=O (stereo not shown) [I.1-503],–,–,100%,–,–,–,–,–,–,–,Avena fatua (efficacy in %) (Avena fatua): 100%; Matricaria inodora (efficacy in %) (Matricaria inodora [3]): 100%
CN1CCC(O)N(C2=NOC(C)(C)C2)C1=O (stereo not shown) [I.1-709],–,100%,–,100%,–,–,–,–,–,–,Alopecurus myosuroides (efficacy in %) (Alopecurus myosuroides): 100%; Digitaria sanguinalis (efficacy in %) (Digitaria sanguinalis): 100%
CC(=O)OC1CCN(C)C(=O)N1c1cc(C(F)(F)F)c(Cl)cn1 (stereo not shown) [I.2-451],–,–,–,–,100%,100%,100%,90%,100%,–,–
"CCC(=O)OC1CCN(C)C(=O)N1c1cc(C(C)(C)C)no1 (stereo not shown) [I.3-290, 3-(3-tert-Butyl-1,2-oxazol-5-yl)-1-methyl-2-oxohexahydropyrimidin-4-yl Propionate]",–,–,–,–,100%,100%,100%,100%,100%,100%,Matricaria inodora (Matricaria inodora [10]): 90%; Abutilon theophrasti (Abutilon theophrasti [11]): 100%
CCC(=O)OC1CCN(C)C(=O)N1c1cc(C(F)(F)F)c(Cl)cn1 (stereo not shown) [I.3-451],–,–,–,–,100%,100%,100%,90%,100%,90%,Echinochloa crus-galli (Echinochloa crus-galli): 100%
CCC(=O)OC1CCN(C)C(=O)N1c1cc(C(F)(F)F)c(Br)cn1 (stereo not shown) [I.3-464],90%,90%,100%,100%,–,–,–,–,–,–,Setaria viridis (efficacy in %) (Setaria viridis): 90%
CCCC(=O)OC1CCN(C)C(=O)N1c1cc(C(C)(C)C)no1 (stereo not shown) [I.4-290],–,–,–,–,–,–,100%,90%,100%,90%,Abutilon theophrasti (Abutilon theophrasti [11]): 100%
CCCC(=O)OC1CCN(C)C(=O)N1c1cc(C(F)(F)F)ccn1 (stereo not shown) [I.4-449],–,–,–,–,100%,90%,100%,100%,100%,90%,–
CCCC(=O)OC1CCN(C)C(=O)N1c1cc(C(F)(F)F)c(Cl)cn1 (stereo not shown) [I.4-451],–,–,–,–,100%,100%,100%,–,100%,–,–
CC(C)CC(=O)OC1CCN(C)C(=O)N1c1cc(C(F)(F)F)ccn1 (stereo not shown) [I.7-449],–,–,–,–,100%,–,100%,100%,100%,90%,Matricaria inodora (Matricaria inodora [10]): 90%
CC1CC(O)N(c2cc(C(F)(F)F)ccn2)C(=O)N1C (stereo not shown) [I.41-449],100%,–,100%,100%,–,–,–,–,–,–,Alopecurus myosuroides (efficacy in %) (Alopecurus myosuroides): 90%; Matricaria inodora (efficacy in %) (Matricaria inodora [3]): 100%
CCCC(=O)OC1CC(C)N(C)C(=O)N1c1cc(C(F)(F)F)ccn1 (stereo not shown) [I.44-449],–,–,–,–,–,90%,100%,90%,100%,–,Echinochloa crus-galli (Echinochloa crus-galli): 100%
CCC(=O)OC1N(c2cc(C(C)(C)C)on2)C(=O)N(C)CC1(C)C (stereo not shown) [I.63-162],–,–,–,–,100%,100%,100%,90%,100%,100%,Matricaria inodora (Matricaria inodora [10]): 100%; Abutilon theophrasti (Abutilon theophrasti [11]): 100%
CON1CCC(O)N(c2cc(C(C)(C)C)on2)C1=O (stereo not shown) [I.91-162],90%,100%,–,–,–,–,–,–,–,–,Alopecurus myosuroides (efficacy in %) (Alopecurus myosuroides): 80%; Digitaria sanguinalis (efficacy in %) (Digitaria sanguinalis): 100%
